Reference: patent US8389552B2, “(S)-6-(2-(4-(cyclobutylsulfonyl)-1H-imidazol-1-yl)-3-cyclopentylpropanamido)nicotinic acid useful as a glucokinase activator” (Pfizer Inc., priority 2009, dated 2013)
pEC50: −log10 of the molar value.

Biological target: T1, Full-length glucokinase (beta cell isoform) (Homo sapiens, UniProt P35557)
T1 construct: Full-length glucokinase (beta cell isoform) was His-tagged at N-terminus; His tag (N); made in house; host or cells: E. coli BL21(DE3), pBCGK vector
T1 sequence (P35557 1-465): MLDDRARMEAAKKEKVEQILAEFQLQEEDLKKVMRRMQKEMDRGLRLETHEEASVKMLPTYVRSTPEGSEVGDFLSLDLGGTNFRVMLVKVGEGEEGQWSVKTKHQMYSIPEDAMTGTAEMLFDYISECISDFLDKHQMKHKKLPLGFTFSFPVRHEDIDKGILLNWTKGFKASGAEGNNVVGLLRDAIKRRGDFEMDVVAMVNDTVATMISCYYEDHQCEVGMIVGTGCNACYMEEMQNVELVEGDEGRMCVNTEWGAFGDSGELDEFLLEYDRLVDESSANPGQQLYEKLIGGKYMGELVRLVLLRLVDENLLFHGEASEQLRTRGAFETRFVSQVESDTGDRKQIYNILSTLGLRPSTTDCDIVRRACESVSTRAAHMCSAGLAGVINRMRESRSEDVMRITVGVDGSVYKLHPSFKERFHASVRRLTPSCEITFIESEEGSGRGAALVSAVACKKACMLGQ
Experiment: Glucokinase activation assay (PK/LDH-coupled, NADH depletion at 340 nm)
Format: biochemical
Conditions: 5 mM glucose, single value or range where N>1; for pEC50: 2.5 mM ATP, pH 7.1, room temperature, read-out: EC50; for Emax: % max activation = (Va/Vo−1)×100 from fit, pH 7.1, read-out: Maximum Activation (%)
Experimental: Full-length glucokinase (beta cell isoform) was His-tagged at N-terminus and purified by a Ni column followed by size exclusion chromatography. A 320 mL column was packed in house using Superdex75 (Amersham Pharmacia, Carlsbad, Calif.) preparation grade resin. Glucose was obtained from Calbiochem (San Diego, Calif.) and other reagents were purchased from Sigma-Aldrich (St. Louis, Mo.).
All assays were performed in a Corning 384-well plate using Spectramax PLUS spectrophotometer (Molecular Devices, Sunnyvale, Calif.) at room temperature. The final assay volume was 40 ∥L. The buffer conditions used in this assay were as follows: 50 mM HEPES, 5 mM glucose, 2.5 mM ATP, 3.5 mM MgCl2, 0.7 mM NADH, 2 mM dithiothreitol, 1 unit/mL pyruvate kinase/lactate dehydrogenase (PK/LDH), 0.2 mM phosphoenolpyruvate, and 25 mM KCl. The buffer pH was 7.1. The test compound in dimethylsulfoxide solution was added to the buffer and mixed by a plate shaker for 7.5 minutes. The final concentration of dimethylsulfoxide introduced into the assay was 0.25%.
Glucokinase was added to the buffer mixture to initiate the reaction in the presence and absence of compound. The reaction was monitored by absorbance at 340 nm due to the depletion of NADH. The initial reaction velocity was measured by the slope of a linear time course of 0-300 seconds. The percentage of maximum activation was calculated by the following equation: % Maximum Activation=(Va/Vo−1)×100; wherein each of Va and Vo is defined as the initial reaction velocity in the presence and absence of the tested compound, respectively.
The glucokinase activities were measured as a function of compound concentrations.

Row | pEC50 | Emax [%] | Structure (SMILES)
1 | 6.00 to 6.10 | 125 to 147 | Cc1ccc(NC(=O)[C@H](CC2CCCC2)n2cnc(C(F)(F)F)n2)nc1 [Example 85, (S)-3-cyclopentyl-N-(5-methylpyridin-2-yl)-2-(3-(trifluoromethyl)-1H-1,2,4-triazol-1-yl)propanamide]
2 | 6.40 | 120 | Cc1ccc(NC(=O)[C@H](CC2CCCC2)n2cc(C(F)(F)F)nc2C)nc1 [Example 91, (S)-3-cyclopentyl-2-(2-methyl-4-(trifluoromethyl)-1H-imidazol-1-yl)-N-(5-methylpyridin-2-yl)propanamide]
3 | 5.92 to 6.40 | 158 to 168 | Cc1nc(C(F)(F)F)cn1[C@@H](CC1CCCC1)C(=O)Nc1ccc(C(=O)O)cn1 [Example 92, (S)-6-(3-cyclopentyl-2-(2-methyl-4-(trifluoromethyl)-1H-imidazol-1-yl)propanamido)nicotinic acid]
4 | 5.27 to 5.40 | 92 to 95 | Cc1ccc(NC(=O)[C@H](CC2CCCC2)n2cc(C)c(C(F)(F)F)n2)nc1 [Example 93, (S)-3-cyclopentyl-2-(4-methyl-3-(trifluoromethyl)-1H-pyrazol-1-yl)-N-(5-methylpyridin-2-yl)propanamide]
5 | 5.10 | 128 | Cc1cn([C@@H](CC2CCCC2)C(=O)Nc2ccc(C(=O)O)cn2)nc1C(F)(F)F [Example 95, (S)-6-(3-cyclopentyl-2-(4-methyl-3-(trifluoromethyl)-1H-pyrazol-1-yl)propanamido)nicotinic acid]
6 | 5.55 | 123 | Cc1ccc(NC(=O)[C@H](CC2CCCC2)n2cc(C(F)(F)F)c(C)n2)nc1 [Example 96, (S)-3-cyclopentyl-2-(3-methyl-4-(trifluoromethyl)-1H-pyrazol-1-yl)-N-(5-methylpyridin-2-yl)propanamide]
7 | 4.55 | 136 | Cc1ccc(NC(=O)[C@H](CC2CCCC2)n2ncc(C(F)(F)F)c2C)nc1 [Example 97, (S)-3-cyclopentyl-2-(5-methyl-4-(trifluoromethyl)-1H-pyrazol-1-yl)-N-(5-methylpyridin-2-yl)propanamide]

Further lines, the molecule ahead of its results:

Row | Structure (SMILES) | pEC50 | Emax [%]
8 | Cc1ccc(NC(=O)[C@H](CC2CCOCC2)n2cnc(C(F)(F)F)c2)nc1 [Example 75, (S)—N-(5-methylpyridin-2-yl)-3-(tetrahydro-2H-pyran-4-yl)-2-(4-(trifluoromethyl)-1H-imidazol-1-yl)propanamide] | 5.70 to 6.10 | 51 to 78
9 | Cn1ccc(NC(=O)[C@H](CC2CCOCC2)n2cnc(C(F)(F)F)c2)n1 [Example 76, (S)—N-(1-methyl-1H-pyrazol-3-yl)-3-(tetrahydro-2H-pyran-4-yl)-2-(4-(trifluoromethyl)-1H-imidazol-1-yl)propanamide] | 4.74 | 138
10 | O=C(Nc1nc2cccnc2s1)[C@H](CC1CCOCC1)n1cnc(C(F)(F)F)c1 [Example 77, (S)-3-(tetrahydro-2H-pyran-4-yl)-N-(thiazolo[5,4-b]pyridin-2-yl)-2-(4-(trifluoromethyl)-1H-imidazol-1-yl)propanamide] | 4.74 | 139
11 | COc1ccc2nc(NC(=O)[C@H](CC3CCOCC3)n3cnc(C(F)(F)F)c3)sc2n1 [Example 78, (S)—N-(5-methoxythiazolo[5,4-b]pyridin-2-yl)-3-(tetrahydro-2H-pyran-4-yl)-2-(4-(trifluoromethyl)-1H-imidazol-1-yl)propanamide] | 5.36 to 5.38 | 109 to 114
12 | Cn1ccc(NC(=O)[C@H](CC2CCCC2)n2nnc(S(C)(=O)=O)n2)n1 [Example 79, (S)-3-cyclopentyl-N-(1-methyl-1H-pyrazol-3-yl)-2-(5-(methylsulfonyl)-2H-tetrazol-2-yl)propanamide] | 4.40 | 99
13 | Cc1ccc(NC(=O)[C@H](CC2CCCC2)n2nnc(S(C)(=O)=O)n2)nc1 [Example 80, (S)-3-cyclopentyl-N-(5-methylpyridin-2-yl)-2-(5-(methylsulfonyl)-2H-tetrazol-2-yl)propanamide] | 4.49 | 86
14 | Cc1cnc(NC(=O)[C@H](CC2CCCC2)n2nnc(S(C)(=O)=O)n2)cn1 [Example 81, (S)-3-cyclopentyl-N-(5-methylpyrazin-2-yl)-2-(5-(methylsulfonyl)-2H-tetrazol-2-yl)propanamide] | < 4.30 | 
15 | Cc1ccc(NC(=O)[C@H](Cn2cccn2)n2cnc(C(F)(F)F)c2)nc1 [Example 83, (S)—N-(5-methylpyridin-2-yl)-3-(1H-pyrazol-1-yl)-2-(4-(trifluoromethyl)-1H-imidazol-1-yl)propenamide] | < 4.00 | 
16 | O=C(Nc1cnccn1)[C@H](CC1CCCC1)n1cnc(C(F)(F)F)n1 [Example 84, (S)-3-cyclopentyl-N-(pyrazin-2-yl)-2-(3-(trifluoromethyl)-1H-1,2,4-triazol-1-yl)propanamide] | 5.00 | 171
17 | O=C(O)c1ccc(NC(=O)[C@H](CC2CCCC2)n2cnc(C(F)(F)F)n2)nc1 [Example 88, (S)-6-(3-cyclopentyl-2-(3-(trifluoromethyl)-1H-1,2,4-triazol-1-yl)propanamido)nicotinic acid] | 6.15 | 150
18 | O=C(O)Cn1ccc(NC(=O)[C@H](CC2CCCC2)n2cnc(C(F)(F)F)n2)n1 [Example 89, (S)-2-(3-(3-cyclopentyl-2-(3-(trifluoromethyl)-1H-1,2,4-triazol-1-yl)propanamido)-1H-pyrazol-1-yl)acetic acid] | 4.35 | 183
19 | O=C(O)c1ccc(NC(=O)[C@H](CC2CCCCC2)n2cnc(C(F)(F)F)c2)nc1 [Example 90, (S)-6-(3-cyclohexyl-2-(4-(trifluoromethyl)-1H-imidazol-1-yl)propanamido)nicotinic acid] | 6.52 to 6.70 | 120 to 138
